Laboratory results reported in paper PMC7575536, “Synthesis of an acyl-acyl carrier protein synthetase inhibitor to study fatty acid recycling” (Scientific Reports, 2020).
Structures can show the parent of a compound that is named as a salt.

Target: T1, VhAasS (Vibrio harveyi, UniProt Q00IB3)
T1 construct: gene aasS; His6-tagged, expressed in E. coli BL21[DE3], Ni-NTA purified; tag removal not mentioned
T1 sequence (Q00IB3 1-533): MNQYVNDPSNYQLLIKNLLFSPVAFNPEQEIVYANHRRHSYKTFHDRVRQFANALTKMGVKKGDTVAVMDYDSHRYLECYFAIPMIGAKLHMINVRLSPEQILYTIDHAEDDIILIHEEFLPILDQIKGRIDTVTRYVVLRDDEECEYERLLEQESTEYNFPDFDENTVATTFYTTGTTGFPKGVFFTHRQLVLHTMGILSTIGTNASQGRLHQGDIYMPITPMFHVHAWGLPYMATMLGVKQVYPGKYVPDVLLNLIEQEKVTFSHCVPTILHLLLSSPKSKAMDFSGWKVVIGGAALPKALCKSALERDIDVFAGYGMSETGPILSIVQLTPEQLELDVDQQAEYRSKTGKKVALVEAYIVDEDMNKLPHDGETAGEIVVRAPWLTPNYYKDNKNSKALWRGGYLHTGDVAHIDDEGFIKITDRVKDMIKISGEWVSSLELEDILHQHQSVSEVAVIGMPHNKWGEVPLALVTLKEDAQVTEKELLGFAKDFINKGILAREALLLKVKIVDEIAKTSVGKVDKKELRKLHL
Assay: urea-PAGE of acyl-ACP loading, ImageJ densitometry
Type: biochemical
Details: decanoic acid 1 mM, ATP 10 mM, MgCl2 12.5 mM, TCEP 2.5 mM; holo-EcACP or holo-VcACP 30 µM; enzyme 0.5 µM; pH 7.5, 37 °C, 24 h

CCCCCCCCCC(=O)NS(=O)(=O)OC[C@H]1O[C@@H](n2cnc3c(N)ncnc32)[C@H](O)[C@@H]1O [compound 7, 5′-O-(N-decanylsulfamoyl)adenosine mono sodium salt]
% inhibition at 1 mM: In the presence of C10-AMS, VhAasS is completely inhibited from loading decanoic acid
